Source: paper PMC9863651, “Anti-Glioma Activity Achieved by Dual Blood–Brain Barrier/Glioma Targeting Naive Chimeric Peptides-Based Co-Assembled Nanophototheranostics” (Pharmaceutics, 2023)

Assays:
[1] = test system: C6 cells; assay: Localized chemo-PTT/PDT toxicity, brightfield imaging; format: cell-based, Rat; settings: 100 μg/mL, 30 min
Protocol: The localized collaborative chemo-phototoxicity of PINPs, in contrast to PNPs, was studied and then visualized using C6 cells. In short, to assess the thermal ablation effect, C6 cells (50,000/well in 6-well dishes) were seeded and cultured in complete media and they were treated with different formulations (100 μg/mL, for 30 min). The used complete growth media containing the formulations was then swapped with new phenol-free media without FBS. For a combined chemo-phototoxicity analysis, the corresponding wells containing cells were exposed to a NIR-808 laser for ~10 min, incubated for an additional 30 min, and subsequently imaged under a brightfield microscope (Olympus BX53; Tokyo, Japan).

[2] = test system: C6 glioma cells; assay: Scratch wound healing assay (cell migration); format: cell-based, Rat; settings: 100 μg/mL, 1 h, NIR-808 10 min, 24 h after scraping
Protocol: Scratch wound healing assays of the PNPs, PINPs, and ICG (100 μg/mL) were studied in C6 cells as described previously. This was followed by imaging of the cells which migrated towards the cell-free zone in the scrape at 0 and 24 h, using a brightfield inverted microscope (IX71; Olympus Corp., Tokyo, Japan). The cell migration was analyzed by measuring the dimension of the gap distance using the Adobe Photoshop CC software. The details of the process being used are provided in the Supplementary Materials. […]
nanoparticle’s aqueous solution was monitored and recorded every single min by a digital […]
1.4.5. […]
1.4.6. Scratch Assay of PINPs Determined in C6 Glioma Cells […]
1.4.7. Localized Chemo-phototoxicity of PINPs Determined in C6 Cells
Next, we quantified the synergistic chemo-phototoxicity of PINPs (10 μg/mL) in comparison to other individual moieties [PNPs (chemotherapy) and ICG (phototherapy)] in C6 cells. […]
Following day cells were treated with different formulations for 30 min. […] Cells were incubated for another 24 h and were evaluated by standard MTT assay as described […]
Figure S1. Size distribution profile of self-assembled peptide nanostructures determined in a mixture of HFIP-water at a ratio of 1:19 v/v. […]

CC1(C)C(/C=C/C=C/C=C/C=C2\N(CCCCS(=O)(=O)O)c3ccc4ccccc4c3C2(C)C)=[N+](CCCCS(=O)(=O)[O-])c2ccc3ccccc3c21 [ICG, indocyanine green]
cell death (brightfield images) after NIR-808 exposure ([1]; NIR-808 ~10 min): no cell death | cell death (brightfield images) in the dark / without NIR-808 ([1]; no laser): no cell death | wound closure [2]: ~ 100%
